Results taken from PubChem BioAssay AID316 (DTP/NCI, 2004).
Values joined by “and” are separate entries in the source; they are usually repeats but may differ in a detail not shown here. Equal entries are not always repeated. Inconclusive results and toxic doses are left out. The calls were made as follows: active = survival T/C of 150% or more; inactive = T/C below 125% in these data.

System: P1534 leukemia ip, CD2F1 mice, survival T/C
Assay: NCI In Vivo Anticancer Drug Screen. Data for tumor model P1534 Leukemia (intraperitoneal) in CD2F1 (CDF1) mice
Details: endpoint: mean survival time, higher = longer survival
Description: The antitumor activity of compounds was measured in mice bearing transplantable tumors. Survival or tumor size were measured and the results are expressed as the measurement made in the treated group (T) divided by the measurement made in the vehicle treated control group (C). The tumor model used in this assay is P1534 Leukemia (intraperitoneal) in CD2F1 (CDF1) mice

[1] = dose: 25.0 mg/kg/injection, schedule: Q01DX010 (ip), vehicle: saline
[2] = dose: 50.0 mg/kg/injection, schedule: Q01DX010 (ip), vehicle: saline
[3] = dose: 100.0 mg/kg/injection, schedule: Q01DX010 (ip), vehicle: saline
[4] = dose: 10.0 mg/kg/injection, schedule: Q01DX010 (ip), vehicle: saline
[5] = dose: 20.0 mg/kg/injection, schedule: Q01DX010 (ip), vehicle: saline
[6] = dose: 40.0 mg/kg/injection, schedule: Q01DX010 (ip), vehicle: saline
[7] = dose: 200.0 mg/kg/injection, schedule: Q01DX010 (ip), vehicle: saline
[8] = dose: 62.5 mg/kg/injection, schedule: Q01DX010 (ip), vehicle: saline
[9] = dose: 125.0 mg/kg/injection, schedule: Q01DX010 (ip), vehicle: saline
[10] = dose: 400.0 mg/kg/injection, schedule: Q01DX010 (ip), vehicle: water
[11] = dose: 12.5 mg/kg/injection, schedule: Q01DX010 (sc), vehicle: steriod suspending solution
[12] = dose: 25.0 mg/kg/injection, schedule: Q01DX010 (sc), vehicle: steriod suspending solution

Measured: T/C

C/C=C1\CNC2Cc3c([nH]c4ccccc34)C(=O)CC1C2C(=O)OC (stereo unspecified)
inactive: dose: 12.5 mg/kg/injection, schedule: Q01DX010 (ip), vehicle: saline 93 % of control | [1] 103 % of control | [2] 96 % of control | [3] 93 % of control

CCC(C)n1ncc2c(N(C)C)ncnc21 (stereo unspecified)
inactive: dose: 16.25 mg/kg/injection, schedule: Q01DX010 (ip), vehicle: saline 107 % of control | dose: 32.5 mg/kg/injection, schedule: Q01DX010 (ip), vehicle: saline 111 % of control | dose: 65.0 mg/kg/injection, schedule: Q01DX010 (ip), vehicle: saline 96 % of control

COc1cc(C(=O)CC2CCCCN2)ccc1O (stereo unspecified)
inactive: [4] 100 % of control | [5] 96 % of control | [6] 96 % of control | dose: 80.0 mg/kg/injection, schedule: Q01DX010 (ip), vehicle: saline 93 % of control

NC(N)=NCCCC(N)C(=O)NCCCCCCNC(=O)C(N)CCCN=C(N)N (stereo unspecified)
inactive: [1] 100 % of control | [2] 96 % of control | [3] 100 % of control | [7] 100 % of control

CC(O)CCc1ccc(OC(=O)c2ccccc2)cc1 (stereo unspecified)
inactive: [2] 89 % of control | [3] 93 % of control | [7] 89 % of control | dose: 400.0 mg/kg/injection, schedule: Q01DX010 (ip), vehicle: saline 93 % of control

CC(=O)N(C)C
inactive: [8] 94 % of control and 100 % of control | [9] 105 % of control and 100 % of control | dose: 250.0 mg/kg/injection, schedule: Q01DX010 (ip), vehicle: saline 105 % of control and 100 % of control | dose: 500.0 mg/kg/injection, schedule: Q01DX010 (ip), vehicle: saline 100 % of control

O=C(NO)c1ccc([N+](=O)[O-])cc1
inactive: dose: 270.0 mg/kg/injection, schedule: Q01DX010 (ip), vehicle: water 108 % of control | [10] 112 % of control

NC(N)=NCCCC(N)C(=O)NCCCCCCNCCCCCCNC(=O)C(N)CCCN=C(N)N (stereo unspecified)
inactive: dose: 5.0 mg/kg/injection, schedule: Q01DX010 (ip), vehicle: saline 107 % of control | [4] 96 % of control | [5] 100 % of control

C[C@]12C[C@H](O)[C@H]3[C@@H](CCC4=CC(=O)CC[C@@]43C)[C@@H]1CC[C@@H]2C(=O)CO
inactive: [11] 107 % of control | [12] 107 % of control | dose: 50.0 mg/kg/injection, schedule: Q01DX010 (sc), vehicle: steriod suspending solution 107 % of control | dose: 100.0 mg/kg/injection, schedule: Q01DX010 (sc), vehicle: steriod suspending solution 107 % of control

O=C(NO)c1ccncc1
inactive: dose: 200.0 mg/kg/injection, schedule: Q01DX010 (ip), vehicle: water 101 % of control | dose: 200.0 mg/kg/injection, schedule: Q02DX005 (ip), vehicle: water 106 % of control | dose: 300.0 mg/kg/injection, schedule: Q01DX010 (ip), vehicle: water 108 % of control | dose: 300.0 mg/kg/injection, schedule: Q02DX005 (ip), vehicle: water 99 % of control | dose: 335.0 mg/kg/injection, schedule: Q01DX010 (ip), vehicle: water 106 % of control | [10] 106 % of control | dose: 400.0 mg/kg/injection, schedule: Q02DX005 (ip), vehicle: water 110 % of control | dose: 500.0 mg/kg/injection, schedule: Q01DX010 (ip), vehicle: water 103 % of control | dose: 600.0 mg/kg/injection, schedule: Q01DX010 (ip), vehicle: water 111 % of control | dose: 600.0 mg/kg/injection, schedule: Q02DX005 (ip), vehicle: water 106 % of control | dose: 800.0 mg/kg/injection, schedule: Q02DX005 (ip), vehicle: water 109 % of control

CN(/N=N/N(C)c1ccccc1)c1ccccc1
inactive: dose: 15.6 mg/kg/injection, schedule: Q01DX010 (ip), vehicle: saline 115 % of control | dose: 31.3 mg/kg/injection, schedule: Q01DX010 (ip), vehicle: saline 103 % of control | [8] 111 % of control | [9] 100 % of control

O=C(NCCCCC(NC(=O)c1ccccc1)C(=O)NCCCCCCNCCCCCCNC(=O)C(CCCCNC(=O)c1ccccc1)NC(=O)c1ccccc1)c1ccccc1 (stereo unspecified)
inactive: [1] 100 % of control | [2] 110 % of control | [3] 100 % of control | [7] 106 % of control

CN1CCN(CCCN2c3ccccc3Sc3ccc(C(F)(F)F)cc32)CC1
inactive: [5] 107 % of control | [6] 115 % of control

C[C@]12C=CC(=O)C=C1CC[C@@H]1[C@@H]2[C@@H](O)C[C@@]2(C)[C@H]1CC[C@]2(O)C(=O)CO
inactive: [11] 103 % of control | [12] 106 % of control and 110 % of control

C/C=C1\CN2C3C[C@H]1C(C(=O)OC)[C@H]2Cc1c3[nH]c2ccccc12 (stereo partly specified)
inactive: dose: 7.5 mg/kg/injection, schedule: Q01DX010 (ip), vehicle: saline 100 % of control | dose: 15.0 mg/kg/injection, schedule: Q01DX010 (ip), vehicle: saline 93 % of control | dose: 30.0 mg/kg/injection, schedule: Q01DX010 (ip), vehicle: saline 93 % of control

COc1cc2c(c3c1c(=O)c1ccccc1n3C)C=CC(C)(C)O2
inactive: dose: 6.25 mg/kg/injection, schedule: Q01DX010 (ip), vehicle: other 108 % of control | dose: 12.5 mg/kg/injection, schedule: Q01DX010 (ip), vehicle: other 108 % of control | dose: 25.0 mg/kg/injection, schedule: Q01DX010 (ip), vehicle: other 116 % of control | dose: 50.0 mg/kg/injection, schedule: Q01DX010 (ip), vehicle: other 91 % of control | dose: 100.0 mg/kg/injection, schedule: Q01DX010 (ip), vehicle: other 116 % of control

N#Cc1cn(C2OC(CO)C(O)C2O)c2ncnc(N)c12 (stereo unspecified)
inactive: dose: 16.0 micrograms/kg/injection, schedule: Q01DX010 (ip), vehicle: saline 107 % of control | dose: 32.0 micrograms/kg/injection, schedule: Q01DX010 (ip), vehicle: saline 100 % of control | dose: 63.0 micrograms/kg/injection, schedule: Q01DX010 (ip), vehicle: saline 107 % of control
